{
  "source": "patent US20240325398A1",
  "about": "“COMBINATION THERAPIES” (Infinity Pharmaceuticals, Inc., priority 2014, published 2024)",
  "key": {"HH": {"test_system": "HH", "test": "Combination study, ATPLite 72 h, dose matrix (Synergy Score, CI50)", "type": "cell-based", "conditions": "combination with Compound 1", "method": "The method is described as follows.\nAdditive effect is CI=1.0. […] Antagonistic effect is CI>1.0.\nThe Synergy Score is calculated as: […]"}, "HBL-1": {"test_system": "HBL-1", "test": "Combination study, ATPLite 72 h, dose matrix (Synergy Score, CI50)", "conditions": "combination with Compound 1, 72 h"}, "OCI-Ly3": {"test_system": "OCI-Ly3", "test": "Combination study, ATPLite 72 h, dose matrix (Synergy Score, CI50)", "conditions": "combination with Compound 1; OCI-Ly3; 72 h"}, "U-2932": {"test_system": "U-2932", "test": "Combination study, ATPLite 72 h, dose matrix (Synergy Score, CI50)", "conditions": "combination with Compound 1, 72 h"}, "TMD8": {"test_system": "TMD8", "test": "Combination study, ATPLite 72 h, dose matrix (Synergy Score, CI50)", "conditions": "combination with Compound 1; TMD8; 72 h"}, "OCI-Ly7": {"test_system": "OCI-Ly7", "test": "Combination study, ATPLite 72 h, dose matrix (Synergy Score, CI50)", "conditions": "combination with Compound 1, 72 h", "procedure": "(§1) Cells are thawed from a liquid nitrogen preserved state. Once cells have been expanded and divide at their expected doubling times, screening begins. Cells are seeded in growth media in either black 1536-well or 384-well tissue culture treated plates. Cells are then equilibrated in assay plates via centrifugation and placed in incubators attached to the Dosing Modules at 37° C. for 24 hours before treatment. […] These Tzero (To) plates are read using ultra-sensitive luminescence on Envision plate readers (Perkin Elmer). Treated assay plates are incubated with compound for 72 hours. After 72 hours, plates are developed for endpoint analysis using ATPLite. All data points are collected via automated processes, quality controlled and analyzed using Zalicus software.\n(§2) The measure of effect in the experiment can be the inhibition of cellular response relative to the untreated level (vehicle alone). […] The inhibition ranges from 0% at the untreated level to 100% when T=0. Inhibition levels are negative for agents that actually increase levels.\n(§3) Growth Inhibition (GI) is used as a measure of cell viability. […] A GI reading of 100% represents complete growth inhibition—T72 compound-treated and T0 vehicle signals are matched. […] A GI reading of 200% represents complete death of all cells in the culture well. Compounds reaching an activity plateau of GI 200% are considered cytotoxic. GI is calculated by applying the following test and equation:\n(§4) Combination analysis data were collected in a 6×6 dose matrix. Synergy is calculated by comparing a combination's response to those of its single compound, against the drug-with-itself dose-additive reference model. Deviations from dose additivity may be assessed visually on an isobologram or numerically with a Combination Index (CI). […] Additive effect is CI=1.0. […] Antagonistic effect is CI>1.0.\n(§5) To measure combination effects in excess of Loewe additivity, a scalar measure to characterize the strength of synergistic interaction termed the Synergy Score is devised. The Synergy Score is calculated as:\n(§6) The fractional inhibition for each component agent and combination point in the matrix is calculated relative to the median of all vehicle-treated control wells. The Synergy Score equation integrates the experimentally-observed activity volume at each point in the matrix in excess of a model surface numerically derived from the activity of the component agents using the Loewe model for additivity. Additional terms in the Synergy Score equation (above) are used to normalize for various dilution factors used for individual agents and to allow for comparison of synergy scores across an entire experiment. The inclusion of positive inhibition gating or an Idata multiplier removes noise near the zero effect level, and biases results for synergistic interactions at that occur at high activity levels.\n(§7) Loewe Volume (Loewe Vol) is used to assess the overall magnitude of the combination interaction in excess of the Loewe additivity model. Loewe Volume is particularly useful when distinguishing synergistic increases in a phenotypic activity (positive Loewe Volume) versus synergistic antagonisms (negative Loewe Volume). […] This model defines additivity as a non-synergistic combination interaction where the combination dose matrix surface should be indistinguishable from either drug crossed with itself. The calculation for Loewe additivity is:"}, "SU-DHL-4-epst": {"test_system": "SU-DHL-4-epst", "test": "Combination study, ATPLite 72 h, dose matrix (Synergy Score, CI50)", "conditions": "combination with Compound 1, 72 h"}, "DOHH-2": {"test_system": "DOHH-2", "test": "Combination study, ATPLite 72 h, dose matrix (Synergy Score, CI50)", "conditions": "combination with Compound 1, 72 h"}, "Farage": {"test_system": "Farage", "test": "Combination study, ATPLite 72 h, dose matrix (Synergy Score, CI50)", "conditions": "combination with Compound 1; Farage; 72 h"}, "SU-DHL-10-epst": {"test_system": "SU-DHL-10-epst", "test": "Combination study, ATPLite 72 h, dose matrix (Synergy Score, CI50)", "conditions": "combination with Compound 1, 72 h", "procedure": "as §1, §2, §3, §4, §5, §6, §7"}, "RL": {"test_system": "RL", "test": "Combination study, ATPLite 72 h, dose matrix (Synergy Score, CI50)", "conditions": "combination with Compound 1, 72 h"}, "KARPAS-422": {"test_system": "KARPAS-422", "test": "Combination study, ATPLite 72 h, dose matrix (Synergy Score, CI50)", "conditions": "combination with Compound 1, 72 h"}, "WSU-NHL": {"test_system": "WSU-NHL", "test": "Combination study, ATPLite 72 h, dose matrix (Synergy Score, CI50)", "conditions": "combination with Compound 1, 72 h"}, "KARPAS-299": {"test_system": "KARPAS-299", "test": "Combination study, ATPLite 72 h, dose matrix (Synergy Score, CI50)", "conditions": "combination with Compound 1"}, "GRANTA-519": {"test_system": "GRANTA-519", "test": "Combination study, ATPLite 72 h, dose matrix (Synergy Score, CI50)", "conditions": "combination with Compound 1"}, "Jeko-1": {"test_system": "Jeko-1", "test": "Combination study, ATPLite 72 h, dose matrix (Synergy Score, CI50)", "conditions": "combination with Compound 1"}, "Mino": {"test_system": "Mino", "test": "Combination study, ATPLite 72 h, dose matrix (Synergy Score, CI50)", "conditions": "combination with Compound 1"}, "NCI-H929": {"test_system": "NCI-H929", "test": "Combination study, ATPLite 72 h, dose matrix (Synergy Score, CI50)", "conditions": "combination with Compound 1", "procedure": "as §1\n(§8) where T is treated cell count and V is untreated (vehicle) cell count (at 72 hours). I ranges from 0% (when T=V) to 100% (when T=0). […] The measure of effect in the experiment can be the inhibition of cellular response relative to the untreated level (vehicle alone). […] The inhibition ranges from 0% at the untreated level to 100% when T=0. Inhibition levels are negative for agents that actually increase levels. Other effect measures, such as an activity ratio r=T/V may be more appropriate for some assays. When activity ratios (e.g, fold increase over stimulated control) are being used, the effect can be measured using an induction 1=ln(T/V). With this definition, all effect expressions are the same as for inhibition.\nas §3, §4, §5, §6\n(§9) Loewe Volume (Loewe Vol) is used to assess the overall magnitude of the combination interaction in excess of the Loewe additivity model. Loewe Volume is particularly useful when distinguishing synergistic increases in a phenotypic activity (positive Loewe Volume) versus synergistic antagonisms (negative Loewe Volume). […] This model defines additivity as a non-synergistic combination interaction where the combination dose matrix surface should be indistinguishable from either drug crossed with itself."}, "[1]": {"test": "Combination study, ATPLite 72 h, dose matrix (Synergy Score, CI50)", "conditions": "combination with Compound 1; OPM-2"}, "OMP-2": {"test_system": "OMP-2", "test": "Combination study, ATPLite 72 h, dose matrix (Synergy Score, CI50)", "conditions": "combination with Compound 1; OPM-2"}, "RPMI-8226": {"test_system": "RPMI-8226", "test": "Combination study, ATPLite 72 h, dose matrix (Synergy Score, CI50)", "conditions": "combination with Compound 1", "procedure": "as §1, §8, §3, §4, §5, §6, §9"}},
  "data": [
    {"compound": "O=C(NOC[C@H](O)CO)c1ccc(F)c(F)c1Nc1ccc(I)cc1F", "note": "[PD0325901]", "values": [
      {"measurement": "CI50 growth inhibition", "setting": "HH", "result": "W (W=≥1)"},
      {"measurement": "CI50 inhibition", "setting": "HH", "result": "U (U=0.7 to <1)"},
      {"measurement": "Synergy Score growth inhibition", "setting": "HH", "result": "A2 (A2=1 to <3)"},
      {"measurement": "Synergy Score inhibition", "setting": "HH", "result": "A1 (A1=0.0001 to <1)"},
      {"measurement": "CI50 growth inhibition", "setting": "HBL-1", "result": "T (T=0.5 to <0.7)"},
      {"measurement": "Synergy Score growth inhibition", "setting": "HBL-1", "result": "A2 (A2=1 to <3)"},
      {"measurement": "Synergy Score inhibition", "setting": "HBL-1", "result": "A1 (A1=0.0001 to <1)"},
      {"measurement": "CI50 growth inhibition", "setting": "OCI-Ly3", "result": "S (S=0.01 to <0.5)"},
      {"measurement": "Synergy Score growth inhibition", "setting": "OCI-Ly3", "result": "A2 (A2=1 to <3)"},
      {"measurement": "Synergy Score inhibition", "setting": "OCI-Ly3", "result": "A1 (A1=0.0001 to <1)"},
      {"measurement": "CI50 growth inhibition", "setting": "U-2932", "result": "U (U=0.7 to <1)"},
      {"measurement": "Synergy Score growth inhibition", "setting": "U-2932", "result": "A2 (A2=1 to <3)"},
      {"measurement": "Synergy Score inhibition", "setting": "U-2932", "result": "A1 (A1=0.0001 to <1)"},
      {"measurement": "CI50 growth inhibition", "setting": "TMD8", "result": "U (U=0.7 to <1)"},
      {"measurement": "CI50 inhibition", "setting": "TMD8", "result": "U (U=0.7 to <1)"},
      {"measurement": "Synergy Score growth inhibition", "setting": "TMD8", "result": "A3 (A3=>3)"},
      {"measurement": "Synergy Score inhibition", "setting": "TMD8", "result": "A3 (A3=>3)"},
      {"measurement": "Synergy Score growth inhibition", "setting": "OCI-Ly7", "result": "A1 (A1=0.0001 to <1)"},
      {"measurement": "Synergy Score inhibition", "setting": "OCI-Ly7", "result": "A1 (A1=0.0001 to <1)"},
      {"measurement": "CI50 growth inhibition", "setting": "SU-DHL-4-epst", "result": "S (S=0.01 to <0.5)"},
      {"measurement": "CI50 inhibition", "setting": "SU-DHL-4-epst", "result": "T (T=0.5 to <0.7)"},
      {"measurement": "Synergy Score growth inhibition", "setting": "SU-DHL-4-epst", "result": "A2 (A2=1 to <3)"},
      {"measurement": "Synergy Score inhibition", "setting": "SU-DHL-4-epst", "result": "A2 (A2=1 to <3)"},
      {"measurement": "CI50 growth inhibition", "setting": "DOHH-2", "result": "W (W=≥1)"},
      {"measurement": "CI50 inhibition", "setting": "DOHH-2", "result": "W (W=≥1)"},
      {"measurement": "Synergy Score growth inhibition", "setting": "DOHH-2", "result": "A1 (A1=0.0001 to <1)"},
      {"measurement": "Synergy Score inhibition", "setting": "DOHH-2", "result": "A1 (A1=0.0001 to <1)"},
      {"measurement": "CI50 growth inhibition", "setting": "Farage", "result": "W (W=≥1)"},
      {"measurement": "CI50 inhibition", "setting": "Farage", "result": "W (W=≥1)"},
      {"measurement": "Synergy Score growth inhibition", "setting": "Farage", "result": "A2 (A2=1 to <3)"},
      {"measurement": "Synergy Score inhibition", "setting": "Farage", "result": "A1 (A1=0.0001 to <1)"},
      {"measurement": "CI50 growth inhibition", "setting": "SU-DHL-10-epst", "result": "S (S=0.01 to <0.5)"},
      {"measurement": "CI50 inhibition", "setting": "SU-DHL-10-epst", "result": "S (S=0.01 to <0.5)"},
      {"measurement": "Synergy Score growth inhibition", "setting": "SU-DHL-10-epst", "result": "A3 (A3=>3)"},
      {"measurement": "Synergy Score inhibition", "setting": "SU-DHL-10-epst", "result": "A2 (A2=1 to <3)"},
      {"measurement": "Synergy Score growth inhibition", "setting": "RL", "result": "A1 (A1=0.0001 to <1)"},
      {"measurement": "Synergy Score inhibition", "setting": "RL", "result": "A1 (A1=0.0001 to <1)"},
      {"measurement": "CI50 growth inhibition", "setting": "KARPAS-422", "result": "S (S=0.01 to <0.5)"},
      {"measurement": "CI50 inhibition", "setting": "KARPAS-422", "result": "T (T=0.5 to <0.7)"},
      {"measurement": "Synergy Score growth inhibition", "setting": "KARPAS-422", "result": "A2 (A2=1 to <3)"},
      {"measurement": "Synergy Score inhibition", "setting": "KARPAS-422", "result": "A2 (A2=1 to <3)"},
      {"measurement": "CI50 growth inhibition", "setting": "WSU-NHL", "result": "S (S=0.01 to <0.5)"},
      {"measurement": "CI50 inhibition", "setting": "WSU-NHL", "result": "S (S=0.01 to <0.5)"},
      {"measurement": "Synergy Score growth inhibition", "setting": "WSU-NHL", "result": "A3 (A3=>3)"},
      {"measurement": "Synergy Score inhibition", "setting": "WSU-NHL", "result": "A3 (A3=>3)"},
      {"measurement": "CI50 growth inhibition", "setting": "KARPAS-299", "result": "S (S=0.01 to <0.5)"},
      {"measurement": "Synergy Score growth inhibition", "setting": "KARPAS-299", "result": "A2 (A2=1 to <3)"},
      {"measurement": "Synergy Score inhibition", "setting": "KARPAS-299", "result": "A1 (A1=0.0001 to <1)"},
      {"measurement": "CI50 growth inhibition", "setting": "GRANTA-519", "result": "S (S=0.01 to <0.5)"},
      {"measurement": "Synergy Score growth inhibition", "setting": "GRANTA-519", "result": "A3 (A3=>3)"},
      {"measurement": "Synergy Score inhibition", "setting": "GRANTA-519", "result": "A2 (A2=1 to <3)"},
      {"measurement": "CI50 growth inhibition", "setting": "Jeko-1", "result": "U (U=0.7 to <1)"},
      {"measurement": "Synergy Score growth inhibition", "setting": "Jeko-1", "result": "A1 (A1=0.0001 to <1)"},
      {"measurement": "Synergy Score inhibition", "setting": "Jeko-1", "result": "A1 (A1=0.0001 to <1)"},
      {"measurement": "CI50 growth inhibition", "setting": "Mino", "result": "S (S=0.01 to <0.5)"},
      {"measurement": "CI50 inhibition", "setting": "Mino", "result": "S (S=0.01 to <0.5)"},
      {"measurement": "Synergy Score growth inhibition", "setting": "Mino", "result": "A3 (A3=>3)"},
      {"measurement": "Synergy Score inhibition", "setting": "Mino", "result": "A3 (A3=>3)"},
      {"measurement": "CI50 growth inhibition", "setting": "NCI-H929", "result": "S (S=0.01 to <0.5)"},
      {"measurement": "CI50 inhibition", "setting": "NCI-H929", "result": "U (U=0.7 to <1)"},
      {"measurement": "Synergy Score growth inhibition", "setting": "NCI-H929", "result": "A3 (A3=>3)"},
      {"measurement": "Synergy Score inhibition", "setting": "NCI-H929", "result": "A2 (A2=1 to <3)"},
      {"measurement": "CI50 growth inhibition", "setting": "[1]", "result": "U (U=0.7 to <1)"},
      {"measurement": "CI50 inhibition", "setting": "OMP-2", "result": "W (W=≥1)"},
      {"measurement": "Synergy Score growth inhibition", "setting": "OMP-2", "result": "A3 (A3=>3)"},
      {"measurement": "Synergy Score inhibition", "setting": "OMP-2", "result": "A2 (A2=1 to <3)"},
      {"measurement": "CI50 growth inhibition", "setting": "RPMI-8226", "result": "U (U=0.7 to <1)"},
      {"measurement": "Synergy Score growth inhibition", "setting": "RPMI-8226", "result": "A2 (A2=1 to <3)"},
      {"measurement": "Synergy Score inhibition", "setting": "RPMI-8226", "result": "A2 (A2=1 to <3)"}
    ]}
  ]
}
